Measured values: patent US11179450B2, “Long chain antigen containing interepitope sequence that promotes antigen presentation to T cells” (MIE UNIVERSITY, priority 2013, dated 2021)

Key:
Type in all cases: in vivo, BALB/c mice
[1] = tested on: NY p81 specific CD8+ T cells; assay: Specific CD8+ T cell induction in mice, intracellular cytokine staining (NY p81 epitope); conditions: FIG. 6; comparing one to six tyrosines
Source text: A long chain peptide antigen ESO1 LP (native type) (Sequence No. 16) and a long chain peptide antigen ESO1 LP (Y6) (Sequence No. 17), both containing a mouse CD8+ T cell epitope sequence (NY p81 or NY p82) and a mouse CD4+ T cell epitope sequence (NY p91) that are derived from human NY-ESO-1 antigen, were synthesized. As the interepitope sequence between epitopes, the native amino acid sequence of NY-ESO-1 was retained in the ESO1 LP (native type) and the sequence of six consecutive tyrosines (Y6) was used in the ESO1 LP (Y6). Vaccines containing the respective long chain peptide antigens were administered to mice in the same manner as in FIG. 1 and the frequencies of CD8+ T cells and CD4+ T cells specific to the respective epitope sequences were measured by the intracellular cytokine staining method.
(§1) Long chain peptide antigens MEN, all containing three types of mouse CD8+ T cell epitope sequences (MA p265 (Sequence No. 27), NY p81 (Sequence No. 29), and mERK2 9m (Sequence No. 28)), were synthesized. The interepitope sequences between the respective epitopes were one to six consecutive tyrosines (Sequence Nos. 1 and 9-12). Vaccines containing the respective long chain peptide antigens were administered to mice in the same manner as in FIG. 1 and the frequencies of CD8+ T cells specific to the respective epitope sequences were measured by the intracellular cytokine staining method.
as §1, with “five” for “one”, “ten” for “six”, “13-15).” for “9-12).”, “method. […]” for “method.”

[2] = tested on: F4/80+ cells (macrophages); assay: Uptake of FAM-labeled long chain peptide antigens in individual animals, regional lymph node macrophages; conditions: FIG. 9, complexed with CHP, subcutaneous, 16 hours after administration
Experimental: The same FAM-labeled long chain peptide antigens as those in FIG. 8 were complexed with CHP and administered subcutaneously to mice. After 16 hours, cells were collected from a regional lymph node of the administration site, and the fluorescence uptakes into dendritic cells and mouse macrophages were measured by flow cytometry with the P4 fraction in the figure being deemed to correspond to the dendritic cells and the P5 fraction in the figure being deemed to correspond to the macrophages.
A test of uptake of long chain peptide antigens by antigen-presenting cells in individual animals was performed as follows. Each long chain peptide was fluorescence-labeled, complexed with a CHP nanogel, administered subcutaneously to BALB/c mice. 16 hours after administration, cells were collected from lymph nodes and after staining with the anti-CD11c antibody and the anti-F4/80 antibody, the uptake of the fluorescence-labeled long chain peptide antigens by CD11c^+ cells (dendritic cells) and F4/80^+ cells (macrophages) was analyzed by flow cytometry.

[3] = tested on: mouse fibrosarcoma cell line CMS5a; assay: Mouse tumor growth test; conditions: FIG. 2; single dose of vaccine with CpG oligo DNA before subcutaneous CMS5a implantation (prophylactic condition); Student's t test
Source text: Long chain peptide antigens MEN, all containing three types of mouse CD8+ T cell epitope sequences (MA p265 (Sequence No. 27), NY p81 (Sequence No. 29), and mERK2 9m (Sequence No. 28)), were synthesized. The interepitope sequences between the respective epitopes were respectively six consecutive tyrosines (Y6) (Sequence No. 1), six consecutive glycines (G6) (Sequence No. 2), or six consecutive prolines (P6) (Sequence No. 3). Each long chain peptide antigen was complexed with CHP and administered in a single dose as a vaccine to a mouse. As a control, a short chain peptide vaccine, constituted of just the mERK2 9m peptide, was mixed with Freund's incomplete adjuvant and administered. In the process of administration, CpG oligo DNA was coadministered as an adjuvant. On the day after administration, a mouse fibrosarcoma cell line CMS5a, expressing mERK2 as a tumor antigen and presenting the CD8+ T cell epitope mERK2 9m derived from the same antigen, was implanted subcutaneously and its growth was recorded over time.
A subcloned CMS5a cell line, obtained from a CMS5 cell line isolated from fibrosarcoma induced by administering 3-methylcholanthrene to a BALB/c mouse, expresses mutant ERK2 (mERK2) as a tumor antigen and presents a CD8^+ T cell epitope derived from the mERK2. The CMS5a cell line cultured in a T75 flask (Nunc) was detached using PBS containing 0.5% trypsin and collected in RPMI1640 medium containing 10% FBS. After centrifuging (400×g, 5 minutes, 4° C.), the supernatant was removed, and the cells were rinsed twice with RPMI1640 medium, thereafter suspended in RPMI1640 medium at a concentration of 1×10^6 cells/100 μL, and implanted subcutaneously in BALB/c mice at a dose of 100 μL/individual. The CHP/long chain peptide complexes and the adjuvant were administered 7 days before tumor implantation (prophylactic condition). After tumor implantation, the length and breadth of the tumor were measured and the product thereof was recorded as tumor size. The data in the tumor growth test were compared by Student's t test using Microsoft® Excel® (Microsoft Corporation).

For “SNPARYEFLYYYYYYQYIHSANVLYYYYYYRGPESRLL (Long chain peptide antigen, containing three types of mouse CD8+ T cell epitope sequences (MA p265, NY p81, and mERK2 9m)) [MEN(Y6)]”, the “induction of specific CD8+ T cells, NY p81 (third epitope)” value [1] was “highest”, the “fluorescence uptake into macrophages of the regional lymph node” value [2] was “clearly observed” and the “growth of the tumor” value [3] was “suppressed significantly (p<0.05)”.
